According to patent US20230114627A1, “COMPOSITION COMPRISING A METAL ASCORBO-CAMPHORATE COMPOUND AND METHOD FOR PREVENTION AND/OR TREATMENT OF PAPILLOMAVIRUS INFECTIONS” (MGB PHARMA Inc., priority 2020, published 2023):

System: HEC-1A
Assay: Transepithelial electrical resistance (TEER) of HEC-1A monostratified epithelium
Assay type: cell-based
Details: up to 500 μM, 24 hours

Q: How did the “effect on TEER” value turn out when zinc tetra-ascorbo-camphorate [C14] was run?
A: does not affect the TEER
